According to ChEMBL document CHEMBL4052625, “The evaluation of 1,4-benzoquinones as inhibitors of human monoamine oxidase” (Eur J Med Chem, 2017):

Assays:
[1] = biological target: T1, Amine oxidase [flavin-containing] A (Homo sapiens, UniProt P21397); experiment: Inhibition of recombinant human MAO-A expressed in baculovirus infected BTI insect cell microsomes using kynuramine as substrate after 20 mins by fluorescence spectroscopy
T1 sequence (P21397 whole entry): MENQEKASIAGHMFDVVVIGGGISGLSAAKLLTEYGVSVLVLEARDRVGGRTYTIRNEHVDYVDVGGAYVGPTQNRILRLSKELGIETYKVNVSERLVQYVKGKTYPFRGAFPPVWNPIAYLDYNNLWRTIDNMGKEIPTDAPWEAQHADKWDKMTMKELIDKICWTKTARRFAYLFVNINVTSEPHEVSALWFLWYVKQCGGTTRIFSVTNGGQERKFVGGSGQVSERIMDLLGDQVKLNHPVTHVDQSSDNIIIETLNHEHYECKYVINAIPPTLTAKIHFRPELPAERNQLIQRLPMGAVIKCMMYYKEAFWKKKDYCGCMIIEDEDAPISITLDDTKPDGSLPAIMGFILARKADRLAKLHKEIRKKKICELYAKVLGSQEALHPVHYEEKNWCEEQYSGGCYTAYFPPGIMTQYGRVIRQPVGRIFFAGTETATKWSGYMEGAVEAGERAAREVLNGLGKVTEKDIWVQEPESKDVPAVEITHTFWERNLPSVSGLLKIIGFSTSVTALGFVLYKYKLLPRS

[2] = biological target: T2, Amine oxidase [flavin-containing] B (Homo sapiens, UniProt P27338); experiment: Inhibition of recombinant human MAO-B expressed in baculovirus infected BTI insect cell microsomes using kynuramine as substrate after 20 mins by fluorescence spectroscopy
T2 sequence (P27338 whole entry): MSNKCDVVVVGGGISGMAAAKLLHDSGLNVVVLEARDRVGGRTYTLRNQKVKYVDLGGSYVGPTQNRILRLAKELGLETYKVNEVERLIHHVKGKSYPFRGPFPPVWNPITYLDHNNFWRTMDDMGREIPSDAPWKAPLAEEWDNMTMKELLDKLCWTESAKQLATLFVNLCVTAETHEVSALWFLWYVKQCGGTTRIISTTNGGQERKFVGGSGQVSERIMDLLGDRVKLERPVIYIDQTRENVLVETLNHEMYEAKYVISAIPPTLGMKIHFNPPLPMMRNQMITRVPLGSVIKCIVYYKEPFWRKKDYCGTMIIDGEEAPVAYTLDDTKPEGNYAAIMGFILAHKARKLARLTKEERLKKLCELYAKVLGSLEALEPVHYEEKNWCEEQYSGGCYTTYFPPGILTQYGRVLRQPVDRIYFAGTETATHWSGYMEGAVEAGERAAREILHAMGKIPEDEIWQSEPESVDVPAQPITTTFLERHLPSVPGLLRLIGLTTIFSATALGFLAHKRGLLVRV

Homo sapiens = organism: Homo sapiens; experiment: Selectivity index, ratio of IC50 for recombinant human MAO-B to IC50 for recombinant human MAO-A expressed in baculovirus infected BTI insect cell microsomes
[3] = biological target: T1, Amine oxidase [flavin-containing] A; experiment: Competitive inhibition of human brain mitochondria MAO-A using kynuramine as substrate by Lineweaver-Burk analysis
[4] = biological target: T2, Amine oxidase [flavin-containing] B; experiment: Non-competitive inhibition of human brain mitochondria MAO-B using kynuramine as substrate by Lineweaver-Burk analysis
[5] = biological target: T1, Amine oxidase [flavin-containing] A; experiment: Irreversible inhibition of recombinant human MAO-A expressed in baculovirus infected BTI insect cell microsomes assessed as residual activity using kynuramine as substrate at 13 uM preincubated for 15 mins with subsequent dialysis for 24 hrs followed by substrate addition measured after 20 mins by fluorescence spectroscopy relative to negative control; conditions: read-out: INH
[6] = biological target: T2, Amine oxidase [flavin-containing] B; experiment: Inhibition of human liver mitochondria MAO-B using 1-methyl-4-phenyl-1,2,3,6-tetrahydropyridine as substrate after 15 mins by spectrophotometric analysis
[7] = biological target: T1, Amine oxidase [flavin-containing] A; experiment: Inhibition of human gastrointestinal mitochondria MAO-A using 1-methyl-4-(1-methylpyrrol-2-yl)-1,2,3,6-tetrahydropyridine as substrate after 30 mins by spectrophotometric analysis

Structure (SMILES) | IC50 [1] | IC50 [2] | Ratio IC50 (Homo sapiens) | Ki [3] | Ki [4] | activity at 13 µM [5] | Ki [6] | Ki [7]
O=C1C=CC(=O)C(OCc2ccccc2)=C1 | 13.2 µM | 3.69 µM | 0.3 | – | – | – | – | –
O=C1C=CC(=O)C(c2ccccc2)=C1 | 5.03 µM | 7.87 µM | 1.6 | – | – | – | – | –
O=C1C=CC(=O)C=C1 [BENZOQUINONE] | 4.82 µM | 10.2 µM | 2.1 | 9.62 µM | 20.3 µM | – | – | –
O=C1C=CC(=O)C(Cc2ccccc2)=C1 | 5.37 µM | 23.2 µM | 4.3 | – | – | – | – | –
O=C1C=CC(=O)C(C2CCCC2)=C1 | 5.84 µM | 17.8 µM | 3 | – | – | – | – | –
C#CCN(C)Cc1ccccc1 [PARGYLINE] | – | – | – | – | – | 0.1 to 1.6% | – | –
CC1=C(C)C(=O)c2cc(C)ccc2C1=O | – | – | – | – | – | – | 6 µM | 3 µM
